Measurements published in patent publication US20190247353A1, “ACNE STRAIN-SELECTIVE ANTIBACTERIAL AGENT” (MOMOTANI JUNTENKAN CO., LTD., priority 2016, published 2019).
Values after ≈ are worked out from the molar mass of the structure shown. Read-outs that look alike come from different tables or passages of the source.

Legend:
Format in all cases: cell-based, Propionibacterium acnes
[1] = test system: HL053PA1 strain (RT4); assay: MIC by broth microdilution method, HL053PA1 strain; details: Cutibacterium acnes, read-out: MIC against acne bacterium strain HL053PA1 strain (RT4)
Protocol: (§1) An MIC is measured herein according to the broth microdilution method which is the standard method of Japanese Society of Chemotherapy.
(§2) The antibacterial activity of a test substance was determined based on the minimum inhibitory concentration (MIC). An MIC was measured according to the broth microdilution method which is the standard method of Japanese Society of Chemotherapy.
(§3) One-loopful of each acne bacterium strain listed in Table 1 was scraped off and inoculated into 5 mL of a GAM broth slant agar medium (pH 7.0, Nissui Pharmaceutical Co., Ltd.).
The inoculated acne bacterium strain was precultured at 37° C. in a nitrogen atmosphere (anaerobic condition) for 48 hours. The precultured microbial cells were diluted in a modified GAM broth liquid medium (pH 6.0) to a concentration of 5.0×10^4 cfu/mL (viable cell count per OD660=1 is 2.0×10^9 cfu/mL), to prepare strain suspensions.
(§4) Each fatty acid (Tokyo Chemical Industry Co., Ltd.) listed in Table 2 was dissolved in dimethylsulfoxide (DMSO) as a solvent such that the concentration became 10,000 μg/mL, and used as a test substance.
(§5) Each of strain suspensions (5.0×10^4 cfu/mL) was aliquoted in a 96-well round bottom microplate, each of the test substance (fatty acid concentration 10,000 μg/mL) was added at a 1/10 volume to the aliquot and mixed to prepare measurement samples (fatty acid concentration: 1,000 μg/mL). Measurement samples in 2-fold dilution series were prepared using the strain suspension (fatty acid concentration from 0.48 to 1,000 μg/mL).
[…] The presence or absence of a precipitation of test microbial cells after the incubation was examined and the minimum concentration at which the precipitation of microbial cells […] was regarded as the MIC (μg/mL) of the test substance against the acne bacterium strain.

[2] = test system: HL043PA1 strain (RT5); assay: MIC by broth microdilution method, HL043PA1 strain; details: Cutibacterium acnes, read-out: MIC against acne bacterium strain HL043PA1 strain (RT5)
Protocol: as §1, §2, §3
The inoculated acne bacterium strain was precultured at 37° C. in a nitrogen atmosphere (anaerobic condition) for 48 hours. […]
as §4, §5
The measurement samples were incubated under an anaerobic condition at 37° C. for 2 days. The presence or absence of a precipitation of test microbial cells after the incubation was examined and the minimum concentration at which the precipitation of microbial cells […] was regarded as the MIC (μg/mL) of the test substance against the acne bacterium strain.

[3] = test system: HL053PA1 strain (RT4) and HL043PA1 strain (RT5) versus HL110PA3 strain (RT6); assay: Strain-selective antibacterial activity (average of MICRT6/MICRT4 and MICRT6/MICRT5)
Text: Herein, “acne strain-selective antibacterial activity” or “strain-selective antibacterial activity” means an index indicating better inhibition of growth of a dominant strain in acne patients compared to that of a dominant strain in healthy subjects. It is expressed by the average value of the values (MICRT6/MICRT4, and MICRT6/MICRTS) obtained by dividing the minimum inhibitory concentration (MIC) of an object substance with respect to the dominant strain in healthy subjects (RT6 strain) (MICRT6) respectively by the MIC of the object substance with respect to the dominant strain in acne patients (RT4 strain) (MICRT4), and by the MIC of the object substance with respect to the dominant strain in acne patients (RT5 strain) (MICRT5).
The strain-selective antibacterial activity of each test substance (Table 2, right-most column) was evaluated based on the following rating criteria (Table 3). When the strain-selective antibacterial activity is indicated by a numerical range, the rating was based on the minimum value thereof.

[4] = test system: HL110PA3 strain (RT6); assay: MIC by broth microdilution method, HL110PA3 strain; details: Cutibacterium acnes, read-out: MIC against acne bacterium strain HL110PA3 strain (RT6)
[5] = control antibiotics, Comparative Example 2, method as Example 1
[6] = control antibiotics, Comparative Example 2, for LOD calculated using 0.48 ng/mL as MIC of the RT6 strain
[7] = control antibiotics, Comparative Example 2, method as Example 1, LOD = MIC <0.48 ng/mL
[8] = control antibacterial agents, Comparative Example 1, method as Example 1

| Compound | MIC [1, 5] [µg/mL] | MIC [2, 5] [µg/mL] | Strain-selective antibacterial activity [3, 6] | MIC [4, 7] [µg/mL] | MIC [1, 8] [µg/mL] | MIC [2, 8] [µg/mL] | Strain-selective antibacterial activity ([3]; control antibacterial agents, Comparative Example 1) | MIC [4, 8] [µg/mL] |
| --- | --- | --- | --- | --- | --- | --- | --- | --- |
| CN(C)c1ccc(O)c2c1C[C@H]1C[C@H]3[C@H](N(C)C)C(O)=C(C(N)=O)C(=O)[C@@]3(O)C(O)=C1C2=O [Minocycline, reference compound] | 0.24 (≈ 0.525 µM) | 0.49 (≈ 1.07 µM) | <1.5 × 10^−3 | < 0.00048 | – | – | – | – |
| CC1CCc2c(N3CCC(O)CC3)c(F)cc3c(=O)c(C(=O)O)cn1c23 (centres unmarked) [Nadifloxacin, reference compound] | 0.031 (≈ 0.086 µM) | 0.031 (≈ 0.086 µM) | <1.5 × 10^−2 | < 0.00048 | – | – | – | – |
| CCC[C@@H]1C[C@@H](C(=O)N[C@@H]([C@H]2O[C@H](SC)[C@H](O)[C@@H](O)[C@H]2O)[C@H](C)Cl)N(C)C1 [Clindamycin, reference compound] | 31 (≈ 72.9 µM) | 63 (≈ 148 µM) | 7.5 × 10^−4 | 0.031 (≈ 0.0729 µM) | – | – | – | – |
| C[C@H]1c2cccc(O)c2C(=O)C2=C(O)[C@]3(O)C(=O)C(C(N)=O)=C(O)[C@@H](N(C)C)[C@@H]3[C@@H](O)[C@@H]21 [Doxycycline, reference compound] | 0.98 (≈ 2.21 µM) | 2 (≈ 4.5 µM) | 3.6 × 10^−4 | 0.00048 (≈ 0.00108 µM) | – | – | – | – |
| CC(C)c1cccc(=O)c(O)c1 [Hinokitiol, reference compound] | – | – | – | – | 31.3 (≈ 191 µM) | 31.3 (≈ 191 µM) | 1.0 | 31.3 (≈ 191 µM) |
